Measurements: patent US20030203388A1, “Method for determining genotoxicity” (Pfizer Inc., priority 2002, published 2003)

Legend:
[1] = tested on: L5178Y cells; test: in vitro micronucleus assay; format: cell-based, mouse; conditions: L5178Y cells treated four hours, 20 hours recovery; sodium chloride at high concentrations
Protocol: Mouse lymphoma cell line L5178Y (ATCC No. CRL 9518, ATCC) were cultivated in RPMI medium (Invitrogen Life Technologies, Inc., Carlsbad, Calif.) supplemented with 10% fetal bovine serum and antibiotics penicillin and streptomycin at 37° C. Cells from exponentially growing cultures were seeded at a concentration 3×10^5 cells/ml and incubated for 24 hours and maintained below 1×10^6 cells/ml. […] After the treatment, the cells were washed in PBS (Invitrogen Life Technologies, Inc., Carlsbad, Calif.). […] The other half was allowed to recover in a fresh growth medium for 20 hours. Cell viability was determined based on a cell count. […] The cells were then harvested for use in the in vitro micronucleus assay of Example 3 below.
Treated cells prepared according to Example 1 were attached to glass slides by dropping them onto the glass slides using a pipette after hypotonic treatment with 75 mM KCl (Sigma-Aldrich Corp., St Louis, Mo.) and fixation with 3:1 (v/v) MeOH:acetic acid (JT Baker, Inc., Phillipsburg, N.J.). The cells were then stained using 31.25 μg/ml solution of acridine orange (Molecular Probes, Inc., Eugene, Oreg.).
Micronuclei were counted using a Axiokop 2 fluorescent microscopy (Carl Zeiss Microlmaging, Inc., Thornwood, N.Y.).

[2] = tested on: GADD45β (X54149), GADD45 (U00937), AV138783, AI847051, AF055638, AI461837; test: gene expression analysis (Affymetrix mouse microarray chip U74); format: cell-based; conditions: L5178Y cells treated four hours
Protocol: Mouse lymphoma cell line L5178Y (ATCC No. CRL 9518, ATCC) were cultivated in RPMI medium (Invitrogen Life Technologies, Inc., Carlsbad, Calif.) supplemented with 10% fetal bovine serum and antibiotics penicillin and streptomycin at 37° C. Cells from exponentially growing cultures were seeded at a concentration 3×10^5 cells/ml and incubated for 24 hours and maintained below 1×10^6 cells/ml. […] After the treatment, the cells were washed in PBS (Invitrogen Life Technologies, Inc., Carlsbad, Calif.). Half of the cells where then immediately frozen and stored at −80° C. prior to gene expression analysis, as described in Example 2 below. The other half was allowed to recover in a fresh growth medium for 20 hours. Cell viability was determined based on a cell count. Cell viability results appear in FIG. 1 and FIG. 2 as a ratio between treated versus vehicle control. […]
Gene expression was measured using Affymetrix GeneChip® technology (Affymetrix, Inc., Santa Clara, Calif.) using standard protocols available from Affymetrix (see, GeneChip® Expression Analysis, Technical Manual, Rev. 2 (2001), Affymetrix, Inc., available at http://www.affymetrix.com/pdf/expression_manual.pdf). […] The hybridized chips were scanned using a Hewlett Packard GeneArray™ Scanner, (Hewlett Packard Company, Palo Alto, Calif.) and the resulting data were evaluated using Affymetrix Microarray suite software (Affymetrix). […]

SMILES	genotoxic stress, as demonstrated using a micronucleus assay [1]	level of expression of these genes (GADD45β, GADD45, AV138783, AI847051, AF055638, AI461837) [2]	expression of GADD45β (X54149) and GADD45 (U00937) [2]
[Cl-].[Na+] [sodium chloride]	show evidence of genotoxic stress	no effect	
N.N.[Cl][Pt][Cl] [cisplatin]			increased expression
